Data: US10294234B2, “HIV inhibitor compounds” (priority 2017, dated 2019)
Where two headings read alike, the source gives them in different places.

Experiments:
[1] = system: HIV-1 (IIIB) in MT-4 cells; experiment: MT-4 HIV assay; assay type: cell-based; settings: Human immunodeficiency virus 1, MT4, 120 h
How it was run: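 MT-4 cells infected with HIV-1 IIIB (1:250 stock dilution) were incubated with 1:3 serially diluted compounds in RPMI with 10% FBS for 5 days at 37 °C. Cell Titer Glo luminescence was the readout. Plates included mock-infected wells, no-drug wells and 5 uM AZT controls.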

[2] = How it was run: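 Test compounds at 1 uM incubated in duplicate with dog, rat and human liver microsomes (0.5 mg/mL protein) plus NADPH-regenerating system; sampled at 2, 12, 25, 45 and 65 minutes. Parent remaining monitored by LC/MS/MS; Clint calculated from in vitro t1/2.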
[3] = human liver microsomes 0.5 mg/mL, 1 uM compound, NADPH
[4] = rat liver microsomes 0.5 mg/mL, 1 uM compound, NADPH
[5] = HIV-1 (IIIB), MT-4 cells, 5 days, Cell Titer Glo, read-out: EC50

Row | Human Pred Cl. [2, 3] [L/H/kg] | Rat. Pred. Cl. [2, 4] [L/H/kg] | SMILES | EC50 [1] [nM] | EC50 [1, 5] [nM] | Human Pred Cl. ([2]; human, microsomes) [L/H/kg] | Rat. Pred. Cl. ([2]; rat, microsomes) [L/H/kg] | Dog. Pred. Cl. ([2]; dog, microsomes) [L/H/kg]
1 | <0.11 | 0.39 | COC(=O)N[C@H](C(=O)N[C@@H](Cc1ccc(C#Cc2ccc(N3CCN(C)C(=O)C3)nc2)cc1)[C@@H](O)CN(Cc1c(F)cc(-c2ccn(C(F)F)n2)cc1F)NC(=O)[C@@H](NC(=O)OC)C(C)(C)C(F)(F)F)C(C)(C)C(F)(F)F [Example 81, Methyl ((5S,8S,9S,14S)-11-(4-(1-(difluoromethyl)-1H-pyrazol-3-yl)-2,6-difluorobenzyl)-16,16,16-trifluoro-9-hydroxy-15,15-dimethyl-8-(4-((6-(4-methyl-3-oxopiperazin-1-yl)pyridin-3-yl)ethynyl)benzyl)-3,6,13-trioxo-5-(1,1,1-trifluoro-2-methylpropan-2-yl)-2-oxa-4,7,11,12-tetraazahexadecan-14-yl)carbamate] | 4.39 | – | – | – | –
2 | – | – | COC(=O)N[C@H](C(=O)N[C@@H](Cc1ccc(-c2ccc3nc(N4CC5CCC(C4)N5C4COC4)ccc3n2)cc1)[C@@H](O)CN(Cc1c(F)cc(-c2ccn(C(F)F)n2)cc1F)NC(=O)[C@@H](NC(=O)OC)C(C)(C)C(F)(F)F)C(C)(C)C(F)(F)F [Example 200, Methyl ((5S,8S,9S,14S)-11-(4-(1-(difluoromethyl)-1H-pyrazol-3-yl)-2,6-difluorobenzyl)-16,16,16-trifluoro-9-hydroxy-15,15-dimethyl-8-(4-(6-(8-(oxetan-3-yl)-3,8-diazabicyclo[3.2.1]octan-3-yl)-1,5-naphthyridin-2-yl)benzyl)-3,6,13-trioxo-5-(1,1,1-trifluoro-2-methylpropan-2-yl)-2-oxa-4,7,11,12-tetraazahexadecan-14-yl)carbamate] | – | 4.36 | <0.11 | 0.19 | –
3 | – | – | COC(=O)N[C@H](C(=O)N[C@@H](Cc1ccc(C#Cc2ccc(N3CC4CCC(C3)N4C3COC3)nc2)cc1)[C@@H](O)CN(Cc1c(F)cc(-c2cc(OC3COC3)ccn2)cc1F)NC(=O)[C@@H](NC(=O)OC)C(C)(C)C(F)(F)F)C(C)(C)C(F)(F)F [Example 127, Methyl ((5S,8S,9S,14S)-11-(2,6-difluoro-4-(4-(oxetan-3-yloxy)pyridin-2-yl)benzyl)-16,16,16-trifluoro-9-hydroxy-15,15-dimethyl-8-(4-((6-(8-(oxetan-3-yl)-3,8-diazabicyclo[3.2.1]octan-3-yl)pyridin-3-yl)ethynyl)benzyl)-3,6,13-trioxo-5-(1,1,1-trifluoro-2-methylpropan-2-yl)-2-oxa-4,7,11,12-tetraazahexadecan-14-yl)carbamate] | – | 4.19 | 0.54 | 1.3 | –
4 | 0.14 | <0.18 | COC(=O)N[C@H](C(=O)N[C@@H](Cc1ccc(C#Cc2ccc(N3CC[N+]4([O-])CCOC[C@H]4C3)nc2)cc1)[C@@H](O)CN(Cc1c(F)cc(-c2ccn(C(F)F)n2)cc1F)NC(=O)[C@@H](NC(=O)OC)C(C)(C)C(F)(F)F)C(C)(C)C(F)(F)F (stereo partly drawn) [Example 52, (9aR)-8-(5-((4-((2S,3S)-4-(1-(4-(1-(difluoromethyl)-1H-pyrazol-3-yl)-2,6-difluorobenzyl)-2-((S)-4,4,4-trifluoro-2-((methoxycarbonyl)amino)-3,3-dimethylbutanoyl)hydrazinyl)-3-hydroxy-2-((S)-4,4,4-trifluoro-2-((methoxycarbonyl)amino)-3,3-dimethylbutanamido)butyl)phenyl)ethynyl)pyridin-2-yl)octahydro-5H-pyrazino[2,1-c][1,4]oxazine 5-oxide] | – | 8.15 | – | – | –
5 | – | – | COC(=O)N[C@H](C(=O)N[C@@H](Cc1ccc(C#Cc2cnc(N3CC4CCC(C3)N4C3COC3)nc2)cc1)[C@@H](O)CN(Cc1c(F)cc(-c2cnc(N3CC4CCC(C3)N4C3COC3)nc2)cc1F)NC(=O)[C@@H](NC(=O)OC)C(C)(C)C(F)(F)F)C(C)(C)C(F)(F)F [Example 120, Methyl ((5S,8S,9S,14S)-11-(2,6-difluoro-4-(2-(8-(oxetan-3-yl)-3,8-diazabicyclo[3.2.1]octan-3-yl)pyrimidin-5-yl)benzyl)-16,16,16-trifluoro-9-hydroxy-15,15-dimethyl-8-(4-((2-(8-(oxetan-3-yl)-3,8-diazabicyclo[3.2.1]octan-3-yl)pyrimidin-5-yl)ethynyl)benzyl)-3,6,13-trioxo-5-(1,1,1-trifluoro-2-methylpropan-2-yl)-2-oxa-4,7,11,12-tetraazahexadecan-14-yl)carbamate] | – | 5.36 | 0.14 | 0.53 | –
6 | – | – | COCCN1C2CCC1CN(c1ccc(C#Cc3ccc(C[C@H](NC(=O)[C@@H](NC(=O)OC)C(C)(C)C(F)(F)F)[C@@H](O)CN(Cc4c(F)cc(-c5ccn(C(F)F)n5)cc4F)NC(=O)[C@@H](NC(=O)OC)C(C)(C)C(F)(F)F)cc3)cn1)C2 [Example 124, Methyl ((5S,8S,9S,14S)-11-(4-(1-(difluoromethyl)-1H-pyrazol-3-yl)-2,6-difluorobenzyl)-16,16,16-trifluoro-9-hydroxy-8-(4-((6-(8-(2-methoxyethyl)-3,8-diazabicyclo[3.2.1]octan-3-yl)pyridin-3-yl)ethynyl)benzyl)-15,15-dimethyl-3,6,13-trioxo-5-(1,1,1-trifluoro-2-methylpropan-2-yl)-2-oxa-4,7,11,12-tetraazahexadecan-14-yl)carbamate] | – | 6.32 | <0.11 | 0.5 | –
7 | – | – | COC(=O)N[C@H](C(=O)N[C@@H](Cc1ccc(-c2cnc(N3CC4CCC(C3)N4C3COC3)nc2)cc1)[C@@H](O)CN(Cc1c(F)cc(-c2ccn(C3CC3)n2)cc1F)NC(=O)[C@@H](NC(=O)OC)C(C)(C)C(F)(F)F)C(C)(C)C(F)(F)F [Example 198, methyl ((5S,8S,9S,14S)-11-(4-(1-cyclopropyl-1H-pyrazol-3-yl)-2,6-difluorobenzyl)-16,16,16-trifluoro-9-hydroxy-15,15-dimethyl-8-(4-(2-(8-(oxetan-3-yl)-3,8-diazabicyclo[3.2.1]octan-3-yl)pyrimidin-5-yl)benzyl)-3,6,13-trioxo-5-(1,1,1-trifluoro-2-methylpropan-2-yl)-2-oxa-4,7,11,12-tetraazahexadecan-14-yl)carbamate] | – | 2.19 | <0.11 | 0.33 | –
8 | – | – | COC(=O)N[C@H](C(=O)N[C@@H](Cc1ccc(C#Cc2cnc(N3CC4CCC(C3)N4C3COC3)nc2)cc1)[C@@H](O)CN(Cc1c(F)cc(-c2cnc(C)nc2)cc1F)NC(=O)[C@@H](NC(=O)OC)C(C)(C)C(F)(F)F)C(C)(C)C(F)(F)F [Example 119, Methyl ((5S,8S,9S,14S)-11-(2,6-difluoro-4-(2-methylpyrimidin-5-yl)benzyl)-16,16,16-trifluoro-9-hydroxy-15,15-dimethyl-8-(4-((2-(8-(oxetan-3-yl)-3,8-diazabicyclo[3.2.1]octan-3-yl)pyrimidin-5-yl)ethynyl)benzyl)-3,6,13-trioxo-5-(1,1,1-trifluoro-2-methylpropan-2-yl)-2-oxa-4,7,11,12-tetraazahexadecan-14-yl)carbamate] | – | 3.66 | <0.11 | 0.27 | 1.35
